Source: PubChem BioAssay (NCI)
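Grown in 96-well plates, cells were treated for 48 hours with each compound at five concentrations. Insufficient inhibition: endpoint recorded as highest concentration tested. The concentration for full growth arrest is given as TGI.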

Assays:
Experiment in all cases: growth of human tumour cells (NCI), 48 h
RXF 393 renal = test system: RXF 393 renal
CCRF-CEM leukemia = test system: CCRF-CEM leukemia
SR leukemia = test system: SR leukemia
SK-MEL-28 melanoma = test system: SK-MEL-28 melanoma
OVCAR-3 ovarian = test system: OVCAR-3 ovarian
SNB-75 CNS = test system: SNB-75 CNS
HOP-92 NSCLC = test system: HOP-92 NSCLC
HL-60(TB) leukemia = test system: HL-60(TB) leukemia
K-562 leukemia = test system: K-562 leukemia
LOX IMVI melanoma = test system: LOX IMVI melanoma
786-0 renal = test system: 786-0 renal
U251 CNS = test system: U251 CNS
OVCAR-5 ovarian = test system: OVCAR-5 ovarian
HT29 colon = test system: HT29 colon
HCT-15 colon = test system: HCT-15 colon
M14 melanoma = test system: M14 melanoma
SF-539 CNS = test system: SF-539 CNS
MDA-N = test system: MDA-N
OVCAR-8 ovarian = test system: OVCAR-8 ovarian
SNB-19 CNS = test system: SNB-19 CNS
MDA-MB-435 = test system: MDA-MB-435
ACHN renal = test system: ACHN renal
NCI-H226 lung = test system: NCI-H226 lung
NCI-H522 lung = test system: NCI-H522 lung
A549 NSCLC = test system: A549 NSCLC
IGROV1 ovarian = test system: IGROV1 ovarian
UACC-257 melanoma = test system: UACC-257 melanoma
SN12C renal = test system: SN12C renal
MALME-3M melanoma = test system: MALME-3M melanoma
MCF7 breast = test system: MCF7 breast
OVCAR-4 ovarian = test system: OVCAR-4 ovarian
SF-268 CNS = test system: SF-268 CNS
MDA-MB-231 breast = test system: MDA-MB-231 breast
DU-145 prostate = test system: DU-145 prostate
NCI-H23 lung = test system: NCI-H23 lung
HOP-62 NSCLC = test system: HOP-62 NSCLC
UO-31 renal = test system: UO-31 renal
NCI/ADR-RES ovarian = test system: NCI/ADR-RES ovarian
A498 renal = test system: A498 renal
EKVX NSCLC = test system: EKVX NSCLC
MOLT-4 leukemia = test system: MOLT-4 leukemia
SF-295 CNS = test system: SF-295 CNS
TK-10 renal = test system: TK-10 renal
SW-620 colon = test system: SW-620 colon
SK-MEL-5 melanoma = test system: SK-MEL-5 melanoma
HCT-116 colon = test system: HCT-116 colon
CAKI-1 renal = test system: CAKI-1 renal
UACC-62 melanoma = test system: UACC-62 melanoma
NCI-H460 lung = test system: NCI-H460 lung
RPMI-8226 leukemia = test system: RPMI-8226 leukemia
SK-OV-3 ovarian = test system: SK-OV-3 ovarian
PC-3 prostate = test system: PC-3 prostate
KM12 colon = test system: KM12 colon
HCC-2998 colon = test system: HCC-2998 colon
COLO 205 colon = test system: COLO 205 colon
BT-549 breast = test system: BT-549 breast
HS 578T breast = test system: HS 578T breast
T-47D breast = test system: T-47D breast
SK-MEL-2 melanoma = test system: SK-MEL-2 melanoma
KM20L2 colon = test system: KM20L2 colon
HOP-18 NSCLC = test system: HOP-18 NSCLC
LXFL 529 NSCLC = test system: LXFL 529 NSCLC
M19-MEL melanoma = test system: M19-MEL melanoma
DMS 114 small cell lung = test system: DMS 114 small cell lung
DMS 273 small cell lung = test system: DMS 273 small cell lung
SNB-78 CNS = test system: SNB-78 CNS
DLD-1 colon = test system: DLD-1 colon
XF 498 CNS = test system: XF 498 CNS

c1ccc2c(Cc3[nH]c4ccccc4c3Cc3c[nH]c4ccccc34)c[nH]c2c1
TGI (RXF 393 renal): 5.8 µM
TGI (CCRF-CEM leukemia): 8.98 µM
TGI (SR leukemia): 15.1 µM
TGI (SK-MEL-28 melanoma): 23.9 µM
TGI (OVCAR-3 ovarian): 9.68 µM
TGI (SNB-75 CNS): 9.69 µM
TGI (HOP-92 NSCLC): 18.1 µM
TGI (HL-60(TB) leukemia): 4.58 µM
TGI (K-562 leukemia): 10.5 µM
TGI (LOX IMVI melanoma): 5.57 µM
TGI (786-0 renal): 4.25 µM
TGI (U251 CNS): 9.78 µM
TGI (OVCAR-5 ovarian): 8.93 µM
TGI (HT29 colon): 6.07 µM
TGI (HCT-15 colon): 10.5 µM
TGI (M14 melanoma): 6.71 µM
TGI (SF-539 CNS): 7.03 µM
TGI (MDA-N): 5.47 µM
TGI (OVCAR-8 ovarian): 35.6 µM
TGI (SNB-19 CNS): 25.3 µM
TGI (MDA-MB-435): 5.16 µM
TGI (ACHN renal): > 36 µM
TGI (NCI-H226 lung): 24.5 µM
TGI (NCI-H522 lung): 3.76 µM
TGI (A549 NSCLC): 21.6 µM
TGI (IGROV1 ovarian): 13.7 µM
TGI (UACC-257 melanoma): 8.47 µM
TGI (SN12C renal): 4.2 µM
TGI (MALME-3M melanoma): 6.3 µM
TGI (MCF7 breast): > 26.5 µM
TGI (OVCAR-4 ovarian): 13.2 µM
TGI (SF-268 CNS): 4.86 µM
TGI (MDA-MB-231 breast): 5.29 µM
TGI (DU-145 prostate): 4.48 µM
TGI (NCI-H23 lung): 7.49 µM
TGI (HOP-62 NSCLC): 12.7 µM
TGI (UO-31 renal): 11.1 µM
TGI (NCI/ADR-RES ovarian): 17.2 µM
TGI (A498 renal): 5.73 µM
TGI (EKVX NSCLC): 11.4 µM
TGI (MOLT-4 leukemia): 12 µM
TGI (SF-295 CNS): 16.3 µM
TGI (TK-10 renal): 8.1 µM
TGI (SW-620 colon): 5.59 µM
TGI (SK-MEL-5 melanoma): 6.05 µM
TGI (HCT-116 colon): 3.47 µM
TGI (CAKI-1 renal): 10.3 µM
TGI (UACC-62 melanoma): > 32.4 µM
TGI (NCI-H460 lung): 4.17 µM
TGI (RPMI-8226 leukemia): 12.2 µM
TGI (SK-OV-3 ovarian): 15.4 µM
TGI (PC-3 prostate): 8.37 µM
TGI (KM12 colon): 4.84 µM
TGI (HCC-2998 colon): 3.26 µM
TGI (COLO 205 colon): 3.99 µM
TGI (BT-549 breast): 19.5 µM
TGI (HS 578T breast): 5.54 µM
TGI (T-47D breast): 12.8 µM
TGI (SK-MEL-2 melanoma): 7.71 µM

Cc1ccc(S(=O)(=O)OCCn2cnc3nc(NC(=O)c4ccccc4)[nH]c(=O)c32)cc1
TGI (RXF 393 renal): > 100 µM
TGI (CCRF-CEM leukemia): > 100 µM
TGI (SR leukemia): > 100 µM
TGI (SK-MEL-28 melanoma): > 100 µM
TGI (KM20L2 colon): > 100 µM
TGI (OVCAR-3 ovarian): > 100 µM
TGI (SNB-75 CNS): > 100 µM
TGI (HOP-92 NSCLC): > 100 µM
TGI (HOP-18 NSCLC): > 100 µM
TGI (HL-60(TB) leukemia): > 100 µM
TGI (K-562 leukemia): > 100 µM
TGI (LOX IMVI melanoma): > 100 µM
TGI (786-0 renal): > 100 µM
TGI (U251 CNS): > 100 µM
TGI (OVCAR-5 ovarian): > 100 µM
TGI (HT29 colon): > 100 µM
TGI (HCT-15 colon): > 100 µM
TGI (M14 melanoma): > 100 µM
TGI (SF-539 CNS): > 100 µM
TGI (OVCAR-8 ovarian): > 100 µM
TGI (SNB-19 CNS): > 100 µM
TGI (ACHN renal): > 100 µM
TGI (NCI-H226 lung): > 100 µM
TGI (NCI-H522 lung): > 100 µM
TGI (A549 NSCLC): > 100 µM
TGI (IGROV1 ovarian): > 100 µM
TGI (UACC-257 melanoma): > 100 µM
TGI (LXFL 529 NSCLC): > 100 µM
TGI (SN12C renal): > 100 µM
TGI (MALME-3M melanoma): > 100 µM
TGI (OVCAR-4 ovarian): > 100 µM
TGI (SF-268 CNS): > 100 µM
TGI (M19-MEL melanoma): > 100 µM
TGI (DMS 114 small cell lung): > 100 µM
TGI (DMS 273 small cell lung): > 100 µM
TGI (SNB-78 CNS): > 100 µM
TGI (HOP-62 NSCLC): > 100 µM
TGI (UO-31 renal): > 100 µM
TGI (A498 renal): > 100 µM
TGI (EKVX NSCLC): > 100 µM
TGI (SF-295 CNS): > 100 µM
TGI (TK-10 renal): > 100 µM
TGI (DLD-1 colon): > 100 µM
TGI (SW-620 colon): > 100 µM
TGI (SK-MEL-5 melanoma): > 100 µM
TGI (HCT-116 colon): > 100 µM
TGI (CAKI-1 renal): > 100 µM
TGI (UACC-62 melanoma): > 100 µM
TGI (NCI-H460 lung): > 100 µM
TGI (RPMI-8226 leukemia): > 100 µM
TGI (SK-OV-3 ovarian): > 100 µM
TGI (KM12 colon): > 100 µM
TGI (COLO 205 colon): > 100 µM
TGI (SK-MEL-2 melanoma): > 100 µM

CCCCCN(CCCCC)C(=O)[C@@H](CCC(=O)O)NC(=O)c1cc2ccccc2[nH]1
TGI (RXF 393 renal): 25.6 µM
TGI (CCRF-CEM leukemia): 61 µM
TGI (SK-MEL-28 melanoma): 57.5 µM
TGI (KM20L2 colon): > 100 µM
TGI (OVCAR-3 ovarian): > 100 µM
TGI (SNB-75 CNS): 61.8 µM
TGI (HOP-92 NSCLC): 67.8 µM
TGI (HL-60(TB) leukemia): 41.2 µM
TGI (K-562 leukemia): > 100 µM
TGI (LOX IMVI melanoma): > 100 µM
TGI (786-0 renal): > 100 µM
TGI (U251 CNS): 78.1 µM
TGI (OVCAR-5 ovarian): > 100 µM
TGI (HT29 colon): > 100 µM
TGI (HCT-15 colon): > 100 µM
TGI (M14 melanoma): 53.4 µM
TGI (SF-539 CNS): 49.4 µM
TGI (OVCAR-8 ovarian): > 100 µM
TGI (SNB-19 CNS): > 100 µM
TGI (ACHN renal): > 100 µM
TGI (NCI-H226 lung): > 100 µM
TGI (NCI-H522 lung): 39.7 µM
TGI (A549 NSCLC): > 100 µM
TGI (IGROV1 ovarian): > 100 µM
TGI (UACC-257 melanoma): > 100 µM
TGI (LXFL 529 NSCLC): > 100 µM
TGI (SN12C renal): > 100 µM
TGI (MALME-3M melanoma): > 100 µM
TGI (OVCAR-4 ovarian): > 100 µM
TGI (SF-268 CNS): 82.9 µM
TGI (M19-MEL melanoma): 40.9 µM
TGI (DMS 114 small cell lung): > 100 µM
TGI (DMS 273 small cell lung): > 100 µM
TGI (SNB-78 CNS): > 100 µM
TGI (NCI-H23 lung): 58 µM
TGI (HOP-62 NSCLC): 87.7 µM
TGI (XF 498 CNS): 71.3 µM
TGI (UO-31 renal): 79.9 µM
TGI (A498 renal): > 100 µM
TGI (EKVX NSCLC): > 100 µM
TGI (MOLT-4 leukemia): 46.6 µM
TGI (SF-295 CNS): > 100 µM
TGI (TK-10 renal): > 100 µM
TGI (DLD-1 colon): > 100 µM
TGI (SW-620 colon): > 100 µM
TGI (HCT-116 colon): 34.2 µM
TGI (CAKI-1 renal): 67.6 µM
TGI (UACC-62 melanoma): 47.5 µM
TGI (NCI-H460 lung): > 100 µM
TGI (RPMI-8226 leukemia): 35.4 µM
TGI (SK-OV-3 ovarian): > 100 µM
TGI (KM12 colon): > 100 µM
TGI (HCC-2998 colon): > 100 µM
TGI (COLO 205 colon): 94.9 µM
TGI (SK-MEL-2 melanoma): 62.2 µM
